How the values were obtained:
endogenous TFEB = test: TFEB nuclear translocation, immunocytochemistry high-content imaging; assay type: cell-based; conditions: PKIS2 primary screening
SH-SY5Y cells [1] = conditions: PKIS2 primary screening; for DQ Intensity: DQ Red BSA intensity; for DQ Spot: DQ Red BSA spot count
Description: The PKIS2 Library was supplied by The Structural Genomics Consortium at the University of North Carolina at Chapel Hill.

SH-SY5Y cells [2] = test: Nuclear count from microscopy images (cellular growth and toxicity); conditions: PKIS2 primary screening; further: reference of the scale not given here
SH-SY5Y cells [3] = test: Chemotype enrichment analysis of PKIS2 primary screen hit categories; conditions: PKIS2 primary screening, hit category
SH-SY5Y cells [4] = test: AK (adenylate kinase) release ToxiLight cytotoxicity assay; conditions: PKIS2 primary screening; further: reference of the scale not given here
endogenous TFE3 = test: TFE3 nuclear translocation, immunocytochemistry high-content imaging; assay type: cell-based; conditions: PKIS2 primary screening
Wherever DQ Intensity is given: reference of the scale not given here.
Wherever DQ Spot is given: reference of the scale not given here.

SMILES | TFEB % (endogenous TFEB) [%] | DQ Intensity (SH-SY5Y cells [1]) | DQ Spot (SH-SY5Y cells [1]) | Nuclear Count (SH-SY5Y cells [2]) | Outcome (SH-SY5Y cells [3]) | AK (SH-SY5Y cells [4]) | TFE3 % (endogenous TFE3) [%]
Nc1ncc(-c2ccc3nccc(-c4ccncc4)c3c2)cc1S(=O)(=O)N1CCCCC1 [UNC10225117A] | 3.14 | 254.18 | 83.51 | 82.78 | TOXIC | 150.20 | 4.68
c1ccc(-c2n[nH]cc2Nc2ccnc3ccccc23)nc1 [UNC10225048A] | 2.79 | 106.75 | 56.59 | 152.96 | LYSO TOXIC | 99.18 | 9.11
COc1cc2ncnc(Nc3ccc4nc(-c5ccccc5)[nH]c4c3)c2cc1OC.Cl [UNC10225504A] | 2.24 | 98.46 | 113.89 | 107.73 | TFE3 | 94.98 | 30.79
CC(C)(C)c1ccc2nccc(Nc3cccc(O)c3)c2c1 [UNC10225361A] | 10.76 | 97.55 | 54.23 | 71.73 | LYSO TOXIC | 101.00 | 26.88
Nc1ncc(-c2ccc3nccc(-c4ccncc4)c3c2)cc1S(=O)(=O)N1CCOCC1 [UNC10225011A] | 0.58 | 150.72 | 94.12 | 96.85 | DQ Only | 92.69 | 1.48
Cl.Cl.NC[C@H](Cc1ccc(C(F)(F)F)cc1)NC(=O)c1cc(Br)c(-c2ccnc3[nH]ccc23)s1 [UNC10225108A] | 5.26 | 147.21 | 85.33 | 144.66 | TFE3 | 105.44 | 23.22
Cl.Cl.NC[C@H](CC1CCCCC1)NC(=O)c1cc(Br)c(-c2ccnc3[nH]ccc23)s1 [UNC10225276A] | 12.93 | 221.52 | 71.17 | 101.96 | TFEB/3 + DQ Int | 108.11 | 33.43
Fc1cc(Cl)ccc1Nc1ccnc2cc(-c3ccc(CN4CCSCC4)o3)ccc12 [UNC10225290A] | 9.12 | 59.38 | 53.95 | 127.72 | LYSO TOXIC | 104.94 | 15.63
Cc1ccc(C(=O)Nc2ccc(Nc3ccnc4cc(-c5nccs5)ccc34)cc2O)cc1.Cl [UNC10225432A] | 8.56 | 38.26 | 36.88 | 89.90 | LYSO TOXIC | 74.29 | 56.52
Nc1nc(-c2cccnc2)c(-c2ccnc3ccccc23)s1 [UNC10225309A] | 13.96 | 115.27 | 134.42 | 71.32 | DQ and TFEB | 67.30 | 14.98
CN(C)Cc1ccc(-c2ccc3c(Nc4ccc(Oc5ccccn5)cc4)ccnc3c2)o1 [UNC10225428A] | 28.26 | 85.61 | 47.88 | 92.33 | LYSO TOXIC | 81.74 | 34.27
Cl.Oc1cccc(Nc2ccnc3cc(-c4ccncc4)ccc23)c1 [UNC10225467A] | 5.92 | 34.95 | 51.42 | 88.58 | LYSO TOXIC | 125.78 | 10.65
COc1cc2nccc(Nc3ccc(NC(=O)c4ccc(C)cc4)c(O)c3)c2cc1OC.Cl [UNC10225013A] | 33.18 | 86.65 | 65.59 | 63.58 | LYSO TOXIC | 100.53 | 46.99
c1ccc(Oc2ccc(Nc3ccnc4cc(-c5ccc(CN6CCCCC6)o5)ccc34)cc2)nc1 [UNC10225094A] | 15.03 | 89.29 | 45.68 | 127.56 | LYSO TOXIC | 71.77 | 31.67
Cl.Cl.NC[C@H](CC1CCCCC1)NC(=O)c1ccc(-c2ccnc3[nH]ccc23)s1 [UNC10225041A] | 14.98 | 229.52 | 72.59 | 83.64 | TFEB + DQ Int | 135.71 | 16.73
COc1cc(Nc2ccnc3cc(-c4ccncc4)ccc23)cc(OC)c1OC.Cl [UNC10225049A] | 12.84 | 164.74 | 83.88 | 54.75 | DQ Only | 108.07 | 16.25
Nc1nccc2scc(-c3ccc4c(c3)CCN4C(=O)Cc3ccccc3)c12 [UNC10225119A] | 5.51 | 60.09 | 72.10 | 119.23 | LYSO TOXIC | 128.12 | 4.70
Cl.c1ccc(-c2ccc3c(Nc4ccc5[nH]ccc5c4)ccnc3c2)nc1 [UNC10225345A] | 8.10 | 44.66 | 42.49 | 89.15 | TOXIC | 157.00 | 38.32
Cl.Cl.NC(CNC(=O)c1cc(Br)c(-c2ccnc3[nH]ccc23)s1)c1ccccc1 (stereo not drawn) [UNC10225176A] | 17.27 | 298.60 | 72.64 | 58.33 | TFEB/3 + DQ Int | 110.45 | 37.70
N#Cc1cnc2cc(-c3cnc(CNCCN4CCOCC4)s3)ccc2c1Nc1ccc(Oc2ccccc2)cc1 [UNC10225079A] | 5.31 | 48.97 | 51.66 | 110.49 | LYSO TOXIC | 71.03 | 6.45
C=CC(=O)Nc1cc2c(Nc3ccc(F)c(Cl)c3)ncnc2cc1OCCCN1CCOCC1 [UNC10126563B] | 7.79 | 67.23 | 74.22 | 114.57 | TOXIC | 149.52 | 16.19
Cc1ccn2nc(-c3ccc(F)cc3)c(-c3ccncc3)c2c1.Cl [UNC10224989A] | 29.24 | 96.51 | 106.96 | 114.75 | TFEB | 121.47 | 6.03
Cc1cccc2c(-c3ccncc3)c(-c3ccc(F)cc3)nn12.Cl [UNC10225316A] | 5.61 | 71.88 | 91.98 | 85.13 | TFE3 | 93.04 | 21.03
CN(C)CCOc1ccc(-c2cc(-c3ccc(Cl)c(O)c3)c(-c3ccncc3)[nH]2)cc1.Cl.Cl [UNC10225395A] | 15.65 | 71.39 | 40.46 | 86.70 | LYSO TOXIC | 117.96 | 46.41

Source: publication PMC9851200, “Multiparameter phenotypic screening for endogenous TFEB and TFE3 translocation identifies novel chemical series modulating lysosome function” (Autophagy, 2022)
